# Results reported in patent US20230227508A1, “SPLIT INTEIN-BASED SELECTION FOR PEPTIDE BINDERS” (priority 2020, published 2023).
# “Also recorded” adds a separate entry of the source. No end group written: not given here.
# Key:
# their target = settings: read-out: binding to their target; cited from earlier work
# [1] = test system: methicillin-resistant Staphylococcus aureus (MRSA), vancomycin-resistant Enterococcus faecium (VRE), Streptococcus pneumoniae; assay: Dilution series, dose-dependent killing of MDR clinical isolates; assay type: cell-based; settings: for dose-dependent antimicrobial activity against at least one strain: 2-fold serial dilution of SPE-purified peptide from liter scale fermentation
# [2] = test system: indicator strains from niches of the human microbiome (Table 11); assay: 96-well antimicrobial profiling, residual growth (OD600); assay type: cell-based; settings: for antimicrobial activity (fingerprint, residual growth): set amount of SPE purified RiPP, large panel of indicator strains; for activity against strains of the alimentary tract: Bifidobacterium adolescenits, Bifidobacterium longum, Sellimonas intestinalis, Streptococcus dysgalactiae
# [3] = test system: human microbiome-associated strains (Staphylococcus aureus, Streptococcus infantarius, Streptococcus dysgalactiae, Pediococcus acidilactici …); assay type: cell-based; settings: microtiter-purified RiPPs; initial test set of indicator strains
# Lactobacillus crispatus = assay: Antimicrobial activity against Lactobacillus crispatus; assay type: cell-based; settings: FIG. 57D
# Streptococcus pneumoniae = assay: Dilution series against Streptococcus pneumoniae; assay type: cell-based; settings: serial dilution of SPE-purified peptide
# [4] = molecular target: SARS-CoV-2 Spike RBD (residues 328-533) as bait (Severe acute respiratory syndrome coronavirus 2, UniProt P0DTC2)
molecule,measurement,setting,value
CN[C@H](CC(C)C)C(=O)N[C@H]1C(=O)N[C@@H](CC(N)=O)C(=O)N[C@H]2C(=O)N[C@H]3C(=O)N[C@H](C(=O)N[C@H](C(=O)O)c4cc(O)cc(O)c4-c4cc3ccc4O)[C@H](O)c3ccc(c(Cl)c3)Oc3cc2cc(c3O[C@@H]2O[C@H](CO)[C@@H](O)[C@H](O)[C@H]2O[C@H]2C[C@](C)(N)[C@H](O)[C@H](C)O2)Oc2ccc(cc2Cl)[C@H]1O [vancomycin],Kd,their target,~1000 nM
GGDGVMHTLTHECHMNTWQFLLTCC [AMK-417],dose-dependent antimicrobial activity against at least one strain,[1],Dose-dependent antimicrobial activity
same,"antimicrobial activity (fingerprint, residual growth)",[2],active
GGGWYTAFKLTLAGRCGLCFTCSYECTSNNVHC [AMK-286],activity against strains of the alimentary tract,[2],pronounced activity
same,"antimicrobial activity (fingerprint, residual growth)",[2],active
GGKNGVFKTISHECHLNTWAFLATCCS [AMK-691],zones of inhibition,[3],varying zones of inhibition
same,dose-dependent antimicrobial activity against at least one strain,[1],Dose-dependent antimicrobial activity
same,"antimicrobial activity (fingerprint, residual growth)",[2],active
same,activity against Lactobacillus crispatus,Lactobacillus crispatus,demonstrated activity
GGWFTAIQLTLAGRCGNWFTGSFECTSNNVKCG [AMK-287],zones of inhibition,[3],varying zones of inhibition
same,activity against Streptococcus pneumoniae,Streptococcus pneumoniae,pronounced activity
same,dose-dependent antimicrobial activity against at least one strain,[1],Dose-dependent antimicrobial activity
same,"activity against other Streptococci (strains with significant activity, spectrum)",[2]; 5 Streptococcal strains of the panel,narrow spectrum of activity
same,activity against strains of the alimentary tract,[2],pronounced activity
same,"antimicrobial activity (fingerprint, residual growth)",[2],active
GHVELMNADKVKCKSTSTTKSCSSTSTTSVD [AMK-720],"antimicrobial activity (fingerprint, residual growth)",[2],exceptionally broad antimicrobial activity
GLIYGKYRDVLSGARLVTPPEVALRLVPR [AMK-917],"antimicrobial activity (fingerprint, residual growth)",[2],active
GSRWWQGVLPTVSHECRMNSFQHIFTCC [AMK-687],zones of inhibition,[3],varying zones of inhibition
same,"antimicrobial activity against MDR clinical isolates (potency, spectrum, in words)",[1],particularly potent and broad-spectrum antimicrobial activity against all four isolates
same,dose-dependent antimicrobial activity against at least one strain,[1],Dose-dependent antimicrobial activity
same,"antimicrobial activity (fingerprint, residual growth)",[2],active; also recorded: remarkable antimicrobial activity
same,activity against Lactobacillus crispatus,Lactobacillus crispatus,even more pronounced activity
GWLWGSYRDVYGVWHGPRTNFNGAGGSSEWRLVPR [AMK-1009],"antimicrobial activity (fingerprint, residual growth)",[2],active
GWQTAFRLTMQGRCGGVFTLSYECATPHVSCG [AMK-916],activity against strains of the alimentary tract,[2],pronounced activity
same,"antimicrobial activity (fingerprint, residual growth)",[2],active
GWYWGNRRDIYGALRYANKRLVPR [AMK-1010],"antimicrobial activity (fingerprint, residual growth)",[2],active
VCKYGEWCEIVEI [VCKYGEWCEIVEI (SEQ ID NO: 24)],specificity for the Spike RBD as bait over Mdm2*,[4],14 fold
same,transcriptional output of circuit,[4],strong transcriptional output
"microcin J25 (GGAGHVPEYFVGIGTPISFYG; ends and bridges not checked; UniProt Q9X2V7 38-58, looked up)",Kd,their target,2000 nM
